Each structure is given as a SMILES string.

The target of this test is T1, GLP-1 Receptor (Homo sapiens, UniProt P43220).
T1 construct: host or cells: HEK293/CRE-Luc (HEK293/GLPIR/CRE-LUC)
T1 sequence (P43220 24-463, species assumed): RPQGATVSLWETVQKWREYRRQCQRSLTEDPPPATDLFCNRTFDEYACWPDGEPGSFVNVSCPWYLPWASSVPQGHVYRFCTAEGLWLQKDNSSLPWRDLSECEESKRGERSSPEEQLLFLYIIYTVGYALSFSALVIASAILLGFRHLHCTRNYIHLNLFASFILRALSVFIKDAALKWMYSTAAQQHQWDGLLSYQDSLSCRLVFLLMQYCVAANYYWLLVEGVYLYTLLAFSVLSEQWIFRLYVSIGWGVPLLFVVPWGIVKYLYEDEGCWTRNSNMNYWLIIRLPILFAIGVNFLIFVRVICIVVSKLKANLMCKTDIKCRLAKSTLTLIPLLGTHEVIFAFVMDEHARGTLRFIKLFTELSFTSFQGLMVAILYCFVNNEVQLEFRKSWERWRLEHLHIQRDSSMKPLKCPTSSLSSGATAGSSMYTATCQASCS
Put plainly: GLP-1R agonist cAMP stimulation assay. In kind it is cell-based. As to conditions: HEK293/CRE-Luc cell line stably expressing the GLP-1 Receptor; 30 min incubation; cAMP dynamic 2 Kit (Cisbio). Here is the method: Activation of GLP-1 receptor is known to stimulate cyclic AMP (cAMP) production in cells which indicates primary coupling to the Gas subunit of the G protein heterotrimeric complex.
To optimize functional activity directed toward Gas coupling, a HEK293/CRE-Luc cell line developed by HDB stably expressing the GLP-1 Receptor was used. 200× concentration of compound working solutions were prepared (Agilent Technologies Bravo) with ½ log serial dilution in 384-well Echo LDV plate (Labcyte, Cat #LP-0200). 50 nL/well 200× concentration of compound working solutions were moved to 384-well white low volume plate (Greiner, Cat #784075) using Labcyte ECHO550. 1×10^5 cells/mL HEK293/GLPIR/CRE-LUC (HD Biosciences) cell suspensions prepared with assay buffer [DPBS containing 0.5 mM IBMX (Sigma, Cat #15879) and 0.10% BSA (GENVIEW, Cat #FA016-100g)], 10 μL cell suspensions were added to each well of previous generated assay plate which already contains 50 nL compound at 200× concentration using ThermoFisher Multidrop Combi (1000 cells/well). Seal the plate and incubate at 37° C. with 5% CO2 for 30 min.
After incubation the cAMP assay signal was generated using cAMP dynamic 2 Kit (Cisbio). 5 μL cAMP-d2 working solution was added to each well, followed with 5 μL Anti-cAMP antibody-cryptate working solution added to each well using ThermoFisher Multidrop Combi. Incubate at room temperature for 1 hour protected from light. Read the fluorescence at 665 and 615 nm with Reader PerkinElmer EnVision.
Turning to `C[C@]1(c2ccc(Cl)cc2F)Oc2cccc(C3CCN(Cc4ncc(-c5nnc(C(=O)O)[nH]5)cc4CC4(C#N)CC4)CC3)c2O1` [E-19], the EC50 was less than 1 nM.

`C[C@]1(c2ccc(Cl)cc2F)Oc2cccc(C3CCN(Cc4ncc(-c5nnc(C(F)(F)F)[nH]5)cc4N4CCNC(=O)C4)CC3)c2O1` [F-9] yielded an EC50 of 1 to 100 nM.

Take `CC1CN(c2cc(-c3nnc(C(F)(F)F)[nH]3)nnc2CN2CCC(c3cccc4c3O[C@@](C)(c3ccc(Cl)cc3F)O4)CC2)CCO1` (stereo partly drawn) [F-17, 4-(3-((4-((S)-2-(4-chloro-2-fluorophenyl)-2-methylbenzo[d][1,3]dioxol-4-yl)piperidin-1-yl)methyl)-6-(5-(trifluoromethyl)-4H-1,2,4-triazol-3-yl)pyridazin-4-yl)-2-methylmorpholine]: the EC50 lay within 1 to 100 nM.

In turn, `COCCNC(=O)c1nnc(-c2cnc(CN3CCC(c4cccc5c4O[C@@](C)(c4ccc(Cl)cc4F)O5)CC3)c(CC3(C#N)CC3)c2)[nH]1` [E-3] registered an EC50 of less than 1 nM.

`CC1(c2ccc(C(=O)O)cc2F)Oc2cccc(C3CCN(Cc4ncc(-c5nnc(C(F)(F)F)[nH]5)cc4CC4(C#N)CC4)CC3)c2O1` (stereo not drawn) [A-3]: the EC50 lay in the range of 1 to 100 nM.

Molecule `CC1(c2ccc(Cl)cc2F)Oc2cccc(C3CCN(Cc4ncc(-c5nnc(C(F)(F)F)[nH]5)cc4OC4CCCC4)CC3)c2O1` (stereo not drawn) [F-12, 2-((4-(2-(4-chloro-2-fluorophenyl)-2-methylbenzo[d][1,3]dioxol-4-yl)piperidin-1-yl)methyl)-3-(cyclopentyloxy)-5-(5-(trifluoromethyl)-4H-1,2,4-triazol-3-yl)pyridine] registered an EC50 of 1 to 100 nM.

Turning to `C[C@]1(c2ccc(Cl)cc2F)Oc2cccc(C3CCN(Cc4ncc(-c5nnc(C(F)(F)F)[nH]5)cc4N4CCC(O)C4)CC3)c2O1` (stereo partly drawn) [F-7, 1-[2-({4-[(2S)-2-(4-chloro-2-fluorophenyl)-2-methyl-2H-1,3-benzodioxol-4-yl]piperidin-1-yl}methyl)-5-[5-(trifluoromethyl)-4H-1,2,4-triazol-3-yl]pyridin-3-yl]pyrrolidin-3-ol], the EC50 was 1 to 100 nM.

Regarding `COCCNC(=O)c1cnc(CN2CCC(c3cccc4c3O[C@@](C)(c3ccc(Cl)cc3F)O4)CC2)c(CC2(C#N)CC2)c1` [D-3], the EC50 lay within 1 to 100 nM.

Molecule `C[C@]1(c2ccc(Cl)cc2F)Oc2cccc(C3CCN(Cc4nnc(-c5nnc(C(F)(F)F)[nH]5)cc4N4CCOC5(CC5)C4)CC3)c2O1` [F-8, (S)-7-(3-((4-(2-(4-chloro-2-fluorophenyl)-2-methylbenzo[d][1,3]dioxol-4-yl)piperidin-1-yl)methyl)-6-(5-(trifluoromethyl)-4H-1,2,4-triazol-3-yl)pyridazin-4-yl)-4-oxa-7-azaspiro[2.5]octane] had an EC50 of 1 to 100 nM.

For the molecule `C[C@]1(c2ccc(Cl)cc2F)Oc2cccc(C3CCC(Cc4ncc(-c5nnc(C(N)=O)[nH]5)cc4CC4(C#N)CC4)CC3)c2O1` (stereo partly drawn) [B-1], the 50% effective concentration (EC50) is less than 1 nM.

Regarding `Cc1cc(-c2nc(-c3cccnc3)no2)cnc1CN1CCC(c2cccc(OCc3ccc(Cl)cc3F)n2)CC1` [E-15], the EC50 is more than 100 nM.

Turning to `C[C@]1(c2ccc(Cl)cc2F)Oc2cccc(C3CCN(Cc4ncc(-c5nnc(C(F)(F)F)[nH]5)cc4N4CCOCC4)CC3)c2O1` [F-1, 4-[2-({4-[(2S)-2-(4-chloro-2-fluorophenyl)-2-methyl-2H-1,3-benzodioxol-4-yl]piperidin-1-yl}methyl)-5-[5-(trifluoromethyl)-4H-1,2,4-triazol-3-yl]pyridin-3-yl]morpholine], the 50% effective concentration (EC50) is less than 1 nM.

The molecule `Cc1cc(-c2nnc(C3CCCOC3)[nH]2)cnc1CN1CCC(c2cccc3c2O[C@@](C)(c2ccc(Cl)cc2F)O3)CC1` (stereo partly drawn) [E-10] registered an EC50 of more than 100 nM.

The molecule `Cc1cc(-c2cc(C(=O)O)n[nH]2)cnc1CN1CCC(c2cccc3c2OC(C)(c2ccc(Cl)cc2F)O3)CC1` (stereo not drawn) [E-8] yielded an EC50 of 1 to 100 nM.

Regarding `C[C@]1(c2ccc(Cl)cc2F)Oc2cccc(C3CCN(Cc4nnc(-c5nnc(C(F)(F)F)[nH]5)cc4N4CCC(O)C4)CC3)c2O1` (stereo partly drawn) [F-15, 1-(3-((4-((S)-2-(4-chloro-2-fluorophenyl)-2-methylbenzo[d][1,3]dioxol-4-yl)piperidin-1-yl)methyl)-6-(5-(trifluoromethyl)-4H-1,2,4-triazol-3-yl)pyridazin-4-yl)pyrrolidin-3-ol], the EC50 was 1 to 100 nM.

The molecule `C[C@]1(c2ccc(Cl)cn2)Oc2cccc(C3CCN(Cc4ncc(C(=O)NC5(C#N)CC5)cc4CC4(C#N)CC4)CC3)c2O1` [D-6] returned an EC50 of more than 100 nM.

Consider `COCCc1cc(-c2nnc(C(=O)OC)[nH]2)cnc1CN1CCC(c2cccc3c2O[C@@](C)(c2ccc(Cl)cc2F)O3)CC1` [E-18], for which the EC50 lay in the range of 1 to 100 nM.

For the molecule `N#CC1(Cc2cc(C(=O)NC3(C#N)CC3)cnc2CN2CCC(c3ccc(F)c(OCc4ccc(Cl)cc4F)n3)CC2)CC1` [D-7], the EC50 is more than 100 nM.

Turning to `CC1(C#N)CN(c2cc(-c3nnc(C(F)(F)F)[nH]3)cnc2CN2CCC(c3cccc4c3O[C@@](C)(c3ccc(Cl)cc3F)O4)CC2)C1` [F-18, (S)-1-(2-((4-(2-(4-chloro-2-fluorophenyl)-2-methylbenzo[d][1,3]dioxol-4-yl)piperidin-1-yl)methyl)-5-(5-(trifluoromethyl)-4H-1,2,4-triazol-3-yl)pyridin-3-yl)-3-methylazetidine-3-carbonitrile], the EC50 lay in the range of 1 to 100 nM.

Molecule `CNC(=O)c1nnc(-c2cnc(CN3CCC(c4cccc5c4O[C@@](C)(c4ccc(Cl)cc4F)O5)CC3)c(CC3(C#N)CC3)c2)[nH]1` [E-4] came in with an EC50 of less than 1 nM.

Take `Cc1cc(-c2nnc(-c3cccnc3)s2)cnc1CN1CCC(c2cccc(OCc3ccc(Cl)cc3F)n2)CC1` [E-16]: the EC50 is more than 100 nM.

Molecule `C[C@]1(c2ccc(Cl)cc2F)Oc2cccc(C3CCN(Cc4ncc(-c5nnc(C(=O)NC6CC6)[nH]5)cc4CC4(C#N)CC4)CC3)c2O1` [E-5] had an EC50 of less than 1 nM.

`C[C@]1(c2ccc(Cl)cc2F)Oc2cccc(C3CCN(Cc4ncc(-c5nnc(C(F)(F)F)[nH]5)cc4N4CC5CC4CO5)CC3)c2O1` (stereo partly drawn) [F-5, 5-[2-({4-[(2S)-2-(4-chloro-2-fluorophenyl)-2-methyl-2H-1,3-benzodioxol-4-yl]piperidin-1-yl}methyl)-5-[5-(trifluoromethyl)-4H-1,2,4-triazol-3-yl]pyridin-3-yl]-2-oxa-5-azabicyclo[2.2.1]heptane]: the EC50 is 1 to 100 nM.

Consider `COCCc1cc(-c2nnc(C(=O)O)[nH]2)cnc1CN1CCC(c2cccc3c2O[C@@](C)(c2ccc(Cl)cc2F)O3)CC1` [E-11], for which the EC50 is more than 100 nM.

Molecule `Cc1cc(-c2csc(C(=O)O)n2)cnc1CN1CCC(c2cccc3c2OC(C)(c2ccc(Cl)cc2F)O3)CC1` (stereo not drawn) [E-7] showed an EC50 of 1 to 100 nM.

On to `Cc1cc(-c2cnc(C(=O)O)s2)cnc1CN1CCC(c2cccc3c2OC(C)(c2ccc(Cl)cc2F)O3)CC1` (stereo not drawn) [E-9], for which the EC50 fell in the range of 1 to 100 nM.

The molecule `C[C@]1(c2ccc(Cl)cc2F)Oc2cccc(C3CCN(Cc4ncc(-c5nnc(C(F)(F)F)[nH]5)cc4C4COC4)CC3)c2O1` [F-19] had an EC50 of more than 100 nM.

`C[C@]1(c2ccc(C(N)=O)cc2F)Oc2cccc(C3CCN(Cc4ncc(-c5nnc(C(F)(F)F)[nH]5)cc4CC4(C#N)CC4)CC3)c2O1` [A-1] displayed an EC50 of less than 1 nM.

The molecule `C[C@]1(c2ccc(Cl)cc2F)Oc2cccc(C3CCN(Cc4ncc(-c5nnc(C(F)(F)F)[nH]5)cc4C4CCOCC4)CC3)c2O1` [F-6, (S)-2-((4-(2-(4-chloro-2-fluorophenyl)-2-methylbenzo[d][1,3]dioxol-4-yl)piperidin-1-yl)methyl)-3-(tetrahydro-2H-pyran-4-yl)-5-(5-(trifluoromethyl)-4H-1,2,4-triazol-3-yl)pyridine] came in with an EC50 of 1 to 100 nM.

Molecule `C[C@]1(c2ccc(Cl)cc2F)Oc2cccc(C3CCN(Cc4ncc(-c5nnc(C(F)(F)F)[nH]5)cc4C4CCCOC4)CC3)c2O1` (stereo partly drawn) [F-10] came in with an EC50 of 1 to 100 nM.

`CNC(=O)c1cnc(CN2CCC(c3cccc4c3O[C@@](C)(c3ccc(Cl)cc3F)O4)CC2)c(CC2(C#N)CC2)c1` [D-4] came in with an EC50 of 1 to 100 nM.

In turn, `COc1cc(-c2nnn[nH]2)cnc1CN1CCC(c2cccc3c2OC(C)(c2ccc(Cl)cc2F)O3)CC1` (stereo not drawn) [F-20, 2-((4-(2-(4-chloro-2-fluorophenyl)-2-methylbenzo[d][1,3]dioxol-4-yl)piperidin-1-yl)methyl)-3-methoxy-5-(1H-tetrazol-5-yl)pyridine] registered an EC50 of more than 100 nM.

Molecule `Cc1cc(-c2noc(-c3cccnc3)n2)cnc1CN1CCC(c2cccc(OCc3ccc(Cl)cc3F)n2)CC1` [E-12] returned an EC50 of more than 100 nM.

As for `Cc1cc(-c2nnc(-c3cccnc3)[nH]2)cnc1CN1CCC(c2cccc3c2O[C@@](C)(c2ccc(Cl)cc2F)O3)CC1` [E-6], the EC50 lay in the range of 1 to 100 nM.

`CC1(C#N)CCN(c2cc(-c3nnc(C(F)(F)F)[nH]3)cnc2CN2CCC(c3cccc4c3O[C@@](C)(c3ccc(Cl)cc3F)O4)CC2)C1` (stereo partly drawn) [F-13, 1-(2-((4-((S)-2-(4-chloro-2-fluorophenyl)-2-methylbenzo[d][1,3]dioxol-4-yl)piperidin-1-yl)methyl)-5-(5-(trifluoromethyl)-4H-1,2,4-triazol-3-yl)pyridin-3-yl)-3-methylpyrrolidine-3-carbonitrile] yielded an EC50 of 1 to 100 nM.

For `Cc1cc(-c2nc(C(=O)O)cs2)cnc1CN1CCC(c2cccc3c2OC(C)(c2ccc(Cl)cc2F)O3)CC1` (stereo not drawn) [E-17], the EC50 is more than 100 nM.

The values above are taken from US20250177362A1, “HETEROCYCLIC GLP-1 AGONISTS” (Gasherbrum Bio, Inc., priority 2022, published 2025).
